What was measured:
IGROV-ET = assay: Inhibition of cells growth by colorimetric assay (SRB), IGROV-ET; type: cell-based; conditions: for GI50 / CC50: Homo sapiens, 48 h; for GI50 / IGROV-ET TGI: SRB assay, 48 hours exposure; for GI50: read-out: IGROV-ET GI50; for CC50: read-out: IGROV-ET LC50, SRB assay, 48 hours exposure
Outline: (§1)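 Human cancer cells (5×10^3/well) attached 18 h in RPMI 1640 10% FBS, then exposed 48 h at 37°C to compounds from 10 to 10^−8 μg/ml in DMSO/EtOH/PBS. TCA-fixed, SRB-stained, OD read at 490 nm; GI, TGI and LC derived from triplicate wells.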

SK-OV-3 = assay: Inhibition of cells growth by colorimetric assay (SRB), SK-OV-3; type: cell-based; conditions: for GI50 / LC50: Homo sapiens, SK-OV-3, 48 h; for GI50 / SK-OV3 TGI: SRB assay, 48 hours exposure; for GI50: read-out: SK-OV3 GI50; for LC50: read-out: SK-OV3 LC50, SRB assay, 48 hours exposure
Outline: as §1

LoVo = assay: Inhibition of cells growth by colorimetric assay (SRB), LoVo; type: cell-based; conditions: for GI50 / LC50 (concentration for 50% cell killing): Homo sapiens, LoVo, 48 h; for GI50 / LOVO TGI: SRB assay, 48 hours exposure; for GI50: read-out: LOVO GI50; for LC50 (concentration for 50% cell killing): read-out: LOVO LC50, SRB assay, 48 hours exposure
Outline: as §1

DU-145 = assay: Inhibition of cells growth by colorimetric assay (SRB), DU-145; type: cell-based; conditions: for GI50 / CC50: Homo sapiens, DU-145, 48 h; for GI50 / DU-145 TGI: SRB assay, 48 hours exposure; for GI50: read-out: DU-145 GI50; for CC50: read-out: DU-145 LC50, SRB assay, 48 hours exposure
Outline: as §1

LoVo-Dox = assay: Inhibition of cells growth by colorimetric assay (SRB), LoVo-Dox; type: cell-based; conditions: for GI50 / CC50: Homo sapiens, 48 h; for GI50 / LOVO-DOX TGI: SRB assay, 48 hours exposure; for GI50: read-out: LOVO-DOX GI50; for CC50: read-out: LOVO-DOX LC50, SRB assay, 48 hours exposure
Outline: as §1

IGROV-1 = assay: Inhibition of cells growth by colorimetric assay (SRB), IGROV-1; type: cell-based; conditions: for GI50 / CC50: Homo sapiens, IGROV-1, 48 h; for GI50 / IGROV TGI: SRB assay, 48 hours exposure; for GI50: read-out: IGROV GI50; for CC50: read-out: IGROV LC50, SRB assay, 48 hours exposure
Outline: as §1

K-562 = assay: Inhibition of cells growth by colorimetric assay (SRB), K-562; type: cell-based; conditions: for GI50 / LC50 (50% cell killing): Homo sapiens, K562, 48 h; for GI50 / K-562 TGI: SRB assay, 48 hours exposure; for GI50: read-out: K-562 GI50; for LC50 (50% cell killing): read-out: K-562 LC50, SRB assay, 48 hours exposure
Outline: as §1

A-549 = assay: Inhibition of cells growth by colorimetric assay (SRB), A-549; type: cell-based; conditions: for GI50 / LC50 (concentration for 50% cell killing): Homo sapiens, A549, 48 h; for GI50 / A-549 TGI: SRB assay, 48 hours exposure; for GI50: read-out: A-549 GI50; for LC50 (concentration for 50% cell killing): read-out: A-549 LC50, SRB assay, 48 hours exposure
Outline: as §1

HMEC1 = assay: Inhibition of cells growth by colorimetric assay (SRB), HMEC1; type: cell-based; conditions: for GI50 / LC50: Homo sapiens, HMEC-1, 48 h; for GI50 / HMEC-1 TGI: SRB assay, 48 hours exposure; for GI50: read-out: HMEC-1 GI50; for LC50: read-out: HMEC-1 LC50, SRB assay, 48 hours exposure
Outline: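 Using sulforhodamine B, cell growth and viability are quantified after a 48 h drug exposure of cells maintained in RPMI 1640/10% FBS at 37 °C, 5% CO2. Concentrations span 10 to 10^−8 μg/ml; optical density is read at 490 nm.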

SK-BR-3 = assay: Inhibition of cells growth by colorimetric assay (SRB), SK-BR-3; type: cell-based; conditions: for GI50 / CC50: Homo sapiens, SK-BR-3, 48 h; for GI50 / SK-BR3 TGI: SRB assay, 48 hours exposure; for GI50: read-out: SK-BR3 GI50; for CC50: read-out: SK-BR3 LC50, SRB assay, 48 hours exposure
Outline: as §1

HT-29 = assay: Inhibition of cells growth by colorimetric assay (SRB), HT-29; type: cell-based; conditions: for GI50 / LC50 (concentration for 50% cell killing): Homo sapiens, HT-29, 48 h; for GI50 / HT-29 TGI: SRB assay, 48 hours exposure; for GI50: read-out: HT-29 GI50; for LC50 (concentration for 50% cell killing): read-out: HT-29 LC50, SRB assay, 48 hours exposure
Outline: as §1

LNCaP = assay: Inhibition of cells growth by colorimetric assay (SRB), LNCaP; type: cell-based; conditions: for GI50 / CC50: Homo sapiens, LNCaP, 48 h; for GI50: read-out: LNCAP GI50, SRB assay, 48 hours exposure; for CC50: read-out: LNCAP LC50, SRB assay, 48 hours exposure; for LNCAP TGI: SRB assay, 48 hours exposure
Outline: as §1

SK-MEL-28 = assay: Inhibition of cells growth by colorimetric assay (SRB), SK-MEL-28; type: cell-based; conditions: for GI50 / CC50: Homo sapiens, SK-MEL-28, 48 h; for GI50 / MEL-28 TGI: SRB assay, 48 hours exposure; for GI50: read-out: MEL-28 GI50; for CC50: read-out: MEL-28 LC50, SRB assay, 48 hours exposure
Outline: as §1

PANC-1 = assay: Inhibition of cells growth by colorimetric assay (SRB), PANC-1; type: cell-based; conditions: for GI50 / LC50 (concentration for 50% net cell kill): Homo sapiens, PANC-1, 48 h; for GI50 / PANC-1 TGI: SRB assay, 48 hours exposure; for GI50: read-out: PANC-1 GI50; for LC50 (concentration for 50% net cell kill): read-out: PANC-1 LC50, SRB assay, 48 hours exposure
Outline: as §1

Text for Heart: (§2) Toxicity was asssessed by the methods reported in Toxicology in Vitro, 15 (2001) 571-577, J. Luber Narod et al.: “Evaluation of the use of in vitro methodolodies as tools for screening new compounds for potential in vivo toxicity”.
Text for Kidney: as §2
Text for Liver: as §2
Text for Myelo: as §2
Text for Skeletal: as §2

SMILES: COc1cc2c(cc1OC(=O)OC(C)(C)C)CCN[C@]21CS[C@@H]2c3c(OC(=O)[C@H](C)NC(=O)OC(C)(C)C)c(C)c4c(c3[C@H](COC1=O)N1C2[C@H]2c3c(cc(C)c(OC)c3O)C[C@@H]([C@@H]1O)N2C)OCO4 (stereo partly shown) [Compound 175]
- Toxicity Data Skeletal (Skeletal): 2.12E-07
- GI50 (IGROV-ET): 3.97 nM
- CC50 (IGROV-ET): 1720 nM
- IGROV-ET TGI (IGROV-ET): 9.56E-09
- GI50 (SK-OV-3): 3.56 nM
- LC50 (SK-OV-3): 10.1 µM
- SK-OV3 TGI (SK-OV-3): 8.77E-09
- Toxicity Data Heart (Heart): 2.82E-09
- GI50 (LoVo): 2.3 nM
- LC50 (concentration for 50% cell killing) (LoVo): 8.33 nM
- LOVO TGI (LoVo): 4.38E-09
- GI50 (DU-145): 3.67 nM
- CC50 (DU-145): 10.1 µM
- DU-145 TGI (DU-145): 9.20E-09
- GI50 (LoVo-Dox): 43.3 nM
- CC50 (LoVo-Dox): 10.1 µM
- LOVO-DOX TGI (LoVo-Dox): 1.55E-07
- GI50 (IGROV-1): 0.641 nM
- CC50 (IGROV-1): 8.13 nM
- IGROV TGI (IGROV-1): 2.37E-09
- GI50 (K-562): 0.293 nM
- LC50 (50% cell killing) (K-562): 0.775 nM
- K-562 TGI (K-562): 4.76E-10
- GI50 (A-549): 2.25 nM
- LC50 (concentration for 50% cell killing) (A-549): 7.97 nM
- A-549 TGI (A-549): 4.24E-09
- GI50 (HMEC1): 3.54 nM
- LC50 (HMEC1): 10.1 µM
- HMEC-1 TGI (HMEC1): 1.29E-08
- Toxicity Data Liver (Liver): 3.87E-09
- Toxicity Data Myelo (Myelo): 1.59E-08
- GI50 (SK-BR-3): 1.31 nM
- CC50 (SK-BR-3): 13.2 nM
- SK-BR3 TGI (SK-BR-3): 3.78E-09
- GI50 (HT-29): 4.15 nM
- LC50 (concentration for 50% cell killing) (HT-29): 10.1 µM
- HT-29 TGI (HT-29): 1.54E-08
- GI50 (LNCaP): 0.382 nM
- CC50 (LNCaP): 3.64 nM
- LNCAP TGI (LNCaP): 1.12E-09
- GI50 (SK-MEL-28): 3.28 nM
- CC50 (SK-MEL-28): 25.2 nM
- MEL-28 TGI (SK-MEL-28): 6.63E-09
- Toxicity Data Kidney (Kidney): 2.84E-09
- GI50 (PANC-1): 4.38 nM
- LC50 (concentration for 50% net cell kill) (PANC-1): 10.1 µM
- PANC-1 TGI (PANC-1): 1.33E-08

SMILES: C=COC(=O)Oc1c(C)c2c(c3c1[C@H]1SC[C@]4(NCCc5cc(OC(=O)OC(C)(C)C)c(OC)cc54)C(=O)OC[C@@H]3N3C1[C@H]1c4c(cc(C)c(OC)c4O)C[C@@H]([C@@H]3O)N1C)OCO2 (stereo partly shown) [Compound 176]
- Toxicity Data Skeletal (Skeletal): 2.41E-08
- GI50 (IGROV-ET): 4.88 nM
- CC50 (IGROV-ET): 3450 nM
- IGROV-ET TGI (IGROV-ET): 3.38E-08
- GI50 (SK-OV-3): 3.26 nM
- LC50 (SK-OV-3): 0.011 µM
- SK-OV3 TGI (SK-OV-3): 8.07E-09
- Toxicity Data Heart (Heart): 1.98E-08
- GI50 (LoVo): 11.1 nM
- LC50 (concentration for 50% cell killing) (LoVo): 112 nM
- LOVO TGI (LoVo): 5.12E-08
- GI50 (DU-145): 5.24 nM
- CC50 (DU-145): 8.36 µM
- DU-145 TGI (DU-145): 1.10E-08
- GI50 (LoVo-Dox): 47.3 nM
- CC50 (LoVo-Dox): 11.2 µM
- LOVO-DOX TGI (LoVo-Dox): 1.15E-06
- GI50 (IGROV-1): 1.74 nM
- CC50 (IGROV-1): 10.7 nM
- IGROV TGI (IGROV-1): 4.30E-09
- GI50 (K-562): 0.737 nM
- LC50 (50% cell killing) (K-562): 6.89 nM
- K-562 TGI (K-562): 1.52E-09
- GI50 (A-549): 2.75 nM
- LC50 (concentration for 50% cell killing) (A-549): 11.2 nM
- A-549 TGI (A-549): 6.01E-09
- GI50 (HMEC1): 3.46 nM
- LC50 (HMEC1): 11.2 µM
- HMEC-1 TGI (HMEC1): 1.48E-07
- Toxicity Data Liver (Liver): 2.95E-08
- Toxicity Data Myelo (Myelo): 1.42E-08
- GI50 (SK-BR-3): 2.7 nM
- CC50 (SK-BR-3): 40.6 nM
- SK-BR3 TGI (SK-BR-3): 7.73E-09
- GI50 (HT-29): 3.83 nM
- LC50 (concentration for 50% cell killing) (HT-29): 11.2 µM
- HT-29 TGI (HT-29): 7.96E-09
- GI50 (LNCaP): 1.62 nM
- CC50 (LNCaP): 6.49 nM
- LNCAP TGI (LNCaP): 3.25E-09
- GI50 (SK-MEL-28): 25.8 nM
- CC50 (SK-MEL-28): 95.6 nM
- MEL-28 TGI (SK-MEL-28): 4.97E-08
- Toxicity Data Kidney (Kidney): 2.80E-09
- GI50 (PANC-1): 5.31 nM
- LC50 (concentration for 50% net cell kill) (PANC-1): 3.2 µM
- PANC-1 TGI (PANC-1): 1.97E-08
